Assay: In-vitro particle size distribution of the aerosol at the mouthpiece
Format: physicochemical
Procedure: Percentage of inhaled mass is a measured quantity, and represents the amount of aerosolized medicament which would be inhaled by a patient. Chamber percent is measured and represents the amount remaining in the chamber 22. MMAD is the mass median aerodynamic size of the aerosolized droplets 79, and FPF<5 μm denotes the fine particle fraction under 5 microns, which represents a particle size distribution well suited for delivery to the deep lung. Inhaled mass may be measured by a variety of means, such as by scintigraphy, or by washing the device or component thereof, eluting the drug and directly measuring, e.g. by titration. Inhaled mass measurements are described, for example, in European Standard EN13544-1, which is incorporated by reference herein.
In this Example an in-vitro delivered dose and particle size distribution (PSD) of the device of FIG. 1 was measured, using a dose of 400 mg of amikacin (125 mg/ml; 3.2 ml). Thus, the in-vitro percentage inhaled mass of amikacin sulfate at the mouthpiece under simulated patient breathing was quantified. Under the following conditions: Tidal Volume (TV) was 500 mL; Respiratory rate (RR) was 15 and an inspiratory to expiratory ratio was 2:3. Three devices were tested. Also, an in-vitro particle size distribution (PSD) at the was determined. Mass balance was determined at the end of the first inhaled mass test run. Breathing parameters of the ventilator were verified pre- and post-inhaled mass test runs. The experimental set up is depicted in FIG. 9.

NCC[C@H](O)C(=O)N[C@@H]1C[C@H](N)[C@@H](O[C@H]2O[C@H](CN)[C@@H](O)[C@H](O)[C@H]2O)[C@H](O)[C@H]1O[C@H]1O[C@H](CO)[C@@H](O)[C@H](N)[C@H]1O.O=S(=O)(O)O.O=S(=O)(O)O [amikacin, amikacin sulfate]
Fine Particle fraction of less than 5 microns (FPF<5.0 μm): about 66% | Fine Particle Dose of less than 5 microns (FPD<5.0 μm) (400 mg dose): about 240 mg | Mass Median Aerodynamic Diameter (MMAD) of the aerosolized particles (three hand-held devices): 3.7-3.8 μm

Source: US9675768B2, “Aerosolization device” (Nektar Therapeutics, priority 2008, dated 2017)
